Experimental data as given in article PMC2918699 (European journal of medicinal chemistry, 2010).

Key:
yeast = yeast assays, mimics calorie restriction by stimulating Sir2; cited from earlier work
[1] = GC-MS analysis of stilbenes in mice serum; format: in vivo, SCID mice; settings: GC-MS retention time and mass spectrum compared to standards
HT-29 xenograft = HT-29 xenograft tumor growth in SCID mice; format: in vivo; settings: 10 mg/kg i.p. once daily, after 3 weeks
PCNA = PCNA in HT-29 tumors by western blotting and immunohistochemistry; format: in vivo, SCID mice; settings: western blotting and immunohistochemistry of HT-29 tumors
p27 = p27 in HT-29 tumors by western blotting and immunohistochemistry; format: in vivo, SCID mice; settings: western blotting and immunohistochemistry of HT-29 tumors

| SMILES | Configuration (cis/trans) found in the serum [1] | Tumor weight decrease compared to the control (HT-29 xenograft) | further results |
| --- | --- | --- | --- |
| Oc1ccc(/C=C/c2cc(O)cc(O)c2)cc1 [Compound 17, Resveratrol] | – | – | extended lifespan (yeast): 70% |
| COC(=O)c1ccc(/C=C/c2cc(OC)cc(OC)c2)cc1 [Compound 5, (E)-Methyl-4-(3,5-dimethoxystyryl)benzoate] | retained their configurations | – | – |
| COC(=O)c1ccc(/C=C\c2cc(OC)cc(OC)c2)cc1 [Compound 6, (Z)- Methyl 4-(3,5-dimethoxystyryl)benzoate] | retained their configurations | – | – |
| COc1cc(/C=C\c2ccc(N)cc2)cc(OC)c1 [Compound 4, (Z)-4-(3,5-dimethoxystyryl)aniline] | isomerized to 3 | – | – |
| COc1ccc(/C=C/c2cc(OC)cc(OC)c2)cc1 [Compound 9, (E)-1,3-dimethoxy-5-(4-methoxystyryl)benzene] | retained their configurations | 21% | Tumor volume lower compared to the control (HT-29 xenograft): 45%; PCNA levels in tumors (PCNA): lowered; p27 levels in tumors (p27): increased |
| COc1ccc(/C=C\c2cc(OC)cc(OC)c2)cc1 [Compound 10, (Z)-1,3-dimethoxy-5-(4-methoxystyryl)benzene] | retained their configurations | 15% | – |
